Measured values from patent publication US8980925B2, “Antimicrobial amphiphiles and methods for their use” (James Madison Innovations, Inc., priority 2010, dated 2015).

Tests used:
[1] = system: Staphylococcus aureus subsp. aureus ATCC® 29213™; assay: Broth microdilution MIC and MBC, S. aureus; type: cell-based; conditions: 37° C., 72 h, MBC and MIC values identical
Experimental: (§1) S. aureus and E. faecalis are Gram-positive pathogens, P. aeruginosa is a Gram-negative pathogen, and E. coli is a non-pathogenic Gram-negative organism.
(§2) The broth microdilution for determining the MIC and MBC of antimicrobial compounds was performed as previously described in Wayne, supra. Briefly, all compounds were serially diluted and 100 μl of each dilution was added to microtiter plate wells in triplicate. Overnight cultures of bacterial cells were diluted to a final inoculum of approximately 5×10^6 cfu/mL, and 100 μl of this suspension was added to all wells yielded 5×10^5 cfu/well. Cell concentrations and viability were verified by serial dilution and plating for each experiment. […] The MBC was determined as the lowest concentration of compound at which there were no colonies growing on the plate.
(§3) MIC values for the compounds of the invention were determined by the broth microdilution method as described herein. […] After microtiter plates were incubated and MICs determined, aliquots from each of the wells were placed on TSA plates and incubated to determine the MBC values for each of the compounds. The MBC was determined as the lowest concentration of compound at which there were no colonies growing on the plate. […] SDS was used for comparison in these studies.

[2] = system: Entercoccus faecalis ATCC® 29212™; assay: Broth microdilution MIC and MBC, E. faecalis; type: cell-based; conditions: 37° C., 72 h, MBC and MIC values identical
Experimental: as §1, §2, §3

[3] = system: Escherichia coli ATCC® 25922™; assay: Broth microdilution MIC and MBC, E. coli; type: cell-based; conditions: 37° C., 72 h, MBC and MIC values identical
Experimental: as §1, §2, §3

[4] = system: Pseudomonas aeruginosa strain Boston 41501 ATCC® 27853™; assay: Broth microdilution MIC and MBC, P. aeruginosa; type: cell-based; conditions: 37° C., 72 h, MBC and MIC values identical
Experimental: as §1, §2, §3

[5] = system: Entercoccus faecalis ATCC® 29212™; conditions: 100 μM of compound, […]10^6 cfu/ml, room temperature, up to 72 h
Text: (§4) Bacterial strains Staphylococcus aureus subsp. aureus ATCC® 29213™, Entercoccus faecalis ATCC® 29212™, Escherichia coli ATCC® 25922™, and Pseudomonas aeruginosa strain Boston 41501 ATCC® 27853™ were obtained from the American type Culture Collection (ATCC, Manassas, Va., USA). S. aureus and E. faecalis are Gram-positive pathogens, P. aeruginosa is a Gram-negative pathogen, and E. coli is a non-pathogenic Gram-negative organism. All strains are reference strains for the Clinical and Laboratory Standards Institute (CLSI) for antimicrobial susceptibility testing of nonfastidious bacteria, and were grown in Mueller-Hinton broth at 37° C. as recommended (Wayne, Pa. National Committee for Clinical Laboratory Standards (2009) Methods for Dilution Antimicrobial Tests for Bacteria That Grow Aerobically—Approved Standard M07-A8).
(§5) Compounds were added to the cultures to a final concentration of 100 μM, and tubes were incubated at room temperature. […] Data reported are times when no colonies were observed growing on plates after overnight incubation.

[6] = system: Escherichia coli ATCC® 25922™; conditions: 100 μM of compound; for time when all cells were killed, E. coli (G−): […]10^6 cfu/ml, room temperature, up to 72 h
Text: as §4, §5

[7] = system: Staphylococcus aureus subsp. aureus ATCC® 29213™; conditions: 100 μM of compound, […]10^6 cfu/ml, room temperature, up to 72 h
Text: as §4, §5

Row | Compound | MICs and MBCs, S. aureus (G+) [1] | MICs and MBCs, E. faecalis (G+) [2] | MICs and MBCs, E. coli (G−) [3] | MICs and MBCs, P. aeruginosa (G−) [4] | time when all cells were killed, E. faecalis (G+) [5] | time necessary to kill […]10^6 cfu/mL, E. coli [6] | time when all cells were killed, E. coli (G−) [6] | time when all cells were killed, S. aureus (G+) [7]
1 | 1-hexadecyloxy-3,5-bis[(trimethlammonoum bromide)methyl]benzene [3,5-C16 (10)] | 16 µM | 31 µM | 63 µM | >63 µM | 0.25 h | ≤ 15 min | 0.25 h | 0.25 h
2 | 1-tetradecyloxy-2,5-bis(4,4′-bipyridinium)benzene, bis-bromide salt [2,5-C14dipyr (41)] | 16 µM | 31 µM | 16 µM | 125 µM | – | – | – | –
3 | CCCCCCCCCCCCOS(=O)(=O)[O-].[Na+] [SDS (13), SDS, reference compound] | 250 µM | 500 µM | >500 µM | >500 µM | – | – | – | –
4 | [(2-tetradecyloxy-m-phenylene)dimethylene]bis[trimethylamonium bromide] [2,6-C14 (8)] | 16 µM | 50 µM | 125 µM | 500 µM | – | – | – | 48 h
5 | [(2-tetradecyloxy-o-phenylene)dimethylene]bis[trimethylamonium bromide] [2,3-C14 (1)] | 6 µM | 31 µM | 63 µM | 125 µM | 24 h | – | 0.5 h | 1 h
6 | [(5-tetradecyloxy-m-phenylene)dimethylene]bis[trimethylamonium bromide] [3,5-C14 (9)] | 8 µM | 31 µM | 31 µM | >63 µM | 1 h | – | 1 h | 1 h
7 | [(6-tetradecyloxy-m-phenylene)dimethylene]bis[trimethylamonium bromide] [2,4-C14 (2)] | 6 µM | 16 µM | 31 µM | 125 µM | 2 h | – | 1 h | 1 h
